This data set in a line: Solubility test of Ph3TP-hpp by LC/MS analysis (water solubility). It counts as physicochemical. On the procedure: In the LC/MS analysis, LC (liquid chromatography) separation was carried out with Acquity UPLC (registered trademark) produced by Waters Corporation, and MS analysis (mass spectrometry) was carried out with Xevo G2 Tof MS produced by Waters Corporation. Acquity UPLC BEH C8 (2.1×100 mm, 1.7 μm) was used as a column for the LC separation. Acetonitrile was used for Mobile Phase A and a 0.1% aqueous solution of formic acid was used for Mobile Phase B. The injection amount of the sample was 5.0 μL. Note that in the analysis, the wavelength of a photodiode array detector was set to 246 nm±1 nm.
In a 5-mL sample bottle, 1 mg of Ph3TP-hpp was put and 2 mL of toluene was added thereto, and then this mixture was irradiated with ultrasonic waves for five minutes. After it was confirmed that the solid was completely dissolved, this solution was diluted by 2.5 times with acetonitrile, whereby the concentration of the solution was adjusted to 200 mg/L. This solution was diluted with acetonitrile, whereby solutions with concentrations of 20 mg/L, 10 mg/L, and 4 mg/L were prepared. The prepared solutions were subjected to LC/MS analysis, and the peak area values derived from Ph3TP-hpp, which were obtained at the respective solution concentrations, were used to form calibration curves.
Next, the water solubility of Ph3TP-hpp was measured.
In a 5-mL sample bottle, 1 mg of Ph3TP-hpp was put and 1 mL of water was added thereto, and then this mixture was irradiated with ultrasonic waves for five minutes. This mixture was filtered through a membrane filter to remove the solid, and the obtained filtrate was diluted by five times with acetonitrile. The obtained solution was subjected to LC/MS analysis.

Converted amounts (≈) assume the structure as drawn.

On to `c1ccc(-c2cc(-c3cccc(N4CCCN5CCCN=C54)c3)c(-c3ccccc3)c(-c3ccccc3)c2-c2ccccc2)cc1` [Ph3TP-hpp, 1-(3′,4′,5′-triphenyl-1,1′:2′,1″-terphenyl-3-yl)-1,3,4,6,7,8-hexahydro-2H-pyrimide[1,2-a]pyrimidine], for which, where the note is “1 mg in 1 mL of water, ultrasonic waves five minutes, membrane filtered, filtrate by LC/MS against calibration curve”, the “solubility of Ph3TP-hpp dissolved in 1 mL of water” value was determined as 0.031 mg. For the setting “thermodynamic from solid, water, from 0.031 mg in 1 mL, read-out: weight fraction of the water solubility”, the solubility at 5 min is 31 µg/mL (≈ 52 µM). Moreover, under “water, LC/MS solubility test”, the “water solubility (in words)” value is “low water solubility”.

The record behind these values is patent US20260223593A1, “Organic Compound, Light-Emitting Device, Display Apparatus, And Electronic Appliance” (Semiconductor Energy Laboratory Co., Ltd., priority 2023, published 2026).
